# Data: paper PMC6753678, “Fueling Open Innovation for Malaria Transmission-Blocking Drugs: Hundreds of Molecules Targeting Early Parasite Mosquito Stages” (Frontiers in Microbiology, 2019)
# Where two headings read alike, the source gives them in different places.
# Legend:
# HepG2 cells [1] = experiment: HepG2 cytotoxicity assay
# Outline: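 Here viability after a 48 h compound incubation (37°C, humidified 5% CO2) is measured by fluorescence and expressed as percent inhibition, with doxorubicin at 50 μM and DMSO as the bounding controls.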
# [2] = test system: P. falciparum late stage (stages IV-V) gametocytes; parameters: method as in Almela et al 2016; conditions: ref Almela et al 2016, read-out: Pf GCT ATP IC50, cited from earlier work
# [3] = test system: P. falciparum female gametocytes; parameters: method as in Miguel-Blanco et al 2017; conditions: ref Miguel-Blanco et al 2017, read-out: Pf FGAA IC50, cited from earlier work
# HepG2 cells [4] = conditions: cited from earlier work
# [5] = test system: P. falciparum female gametocytes; experiment: P. falciparum female gametogenesis assay (Pf FGAA); conditions: 1: YES; 0: NO
# [6] = test system: P. falciparum late stage (stages IV-V) gametocytes; experiment: P. falciparum late stage gametocyte ATP depletion assay (Pf GC-ATP); conditions: 1: YES; 0: NO
# [7] = HepG2 values of the three screens unified
# [8] = HepG2 cytotoxicity unified across the three screens
# [9] = value reported with the Pf GCT ATP screen, ref Almela et al 2016
# [10] = value reported with the Pf FGAA screen, ref Miguel-Blanco et al 2017
SMILES,Unified cytotox (HepG2 cells [1]; [7]),IC50 [2],IC50 [3],HepG2 cytoxicity (Pf GCT ATP screen) (HepG2 cells [4]; ref Almela et al 2016),HepG2 cytoxicity (Pf FGAA screen) (HepG2 cells [4]; ref Miguel-Blanco et al 2017),Is compound selective in assay? Pf FGAA active? [5],Is compound selective in assay? Pf GC-ATP active? [6],Unified cytotox (HepG2 cells [1]; [8]),IC50 ([2]; TCAMS screen comparison),IC50 ([3]; TCAMS screen comparison),HepG2 cytoxicity (HepG2 cells [4]; [9]),HepG2 cytoxicity (HepG2 cells [4]; [10])
COc1cc2ccccc2c(OC)c1CCNCCCCNCCc1c(OC)cc2ccccc2c1OC.CS(=O)(=O)O [TCMDC-137842],3.68 µM,310 nM,1240 nM,3.2 µM,4.17 µM,0 (0: NO),1 (1: YES),–,–,–,–,–
CNC(=S)NN=C(C)c1ccccn1 [TCMDC-123475],–,–,–,–,–,1 (1: YES),1 (1: YES),25.00 µM,1170 nM,14 nM,>25 µM,–
COc1cccc(-c2csc(C(=O)NCC3CCN(Cc4ccc(C(C)(C)C)cc4)C3)c2)c1.O=C(O)C(F)(F)F (stereo not drawn) [TCMDC-134447],–,–,–,–,–,1 (1: YES),1 (1: YES),7.64 µM,230 nM,650 nM,9.5 µM,5.78 µM
CC(C)(C)c1ccc(-c2cc3c(ccc4nc(N)nc(N)c43)[nH]2)cc1 [TCMDC-137977],–,–,–,–,–,0 (0: NO),0 (0: NO),2.56 µM,550 nM,770 nM,3.26 µM,1.86 µM
Br.Oc1ccc(CCNCCCCCCNCCc2ccc(Cl)c3ccccc23)cc1O [TCMDC-131271],–,–,–,–,–,0 (0: NO),1 (1: YES),12.36 µM,530 nM,2380 nM,13.5 µM,11.22 µM
FC(F)(F)c1ccc2[nH]c(-c3ccc(-c4cccc(CNCCN5CCNCC5)c4)cc3)nc2c1.O=C(O)C(F)(F)F [TCMDC-132864],–,–,–,–,–,0 (0: NO),1 (1: YES),14.90 µM,1080 nM,1710 nM,17.5 µM,12.31 µM
CN(C)CCN(C)Cc1cccc(-c2ccc3c(Nc4ccc(F)cc4Cl)ccnc3c2)c1 [TCMDC-138416],–,–,–,–,–,0 (0: NO),1 (1: YES),4.85 µM,480 nM,7020 nM,3.6 µM,6.10 µM
CC(C)c1ccc(CN2CCC(CNC(=O)c3cc(-c4cccc(F)c4)cs3)C2)cc1.O=C(O)C(F)(F)F (stereo not drawn) [TCMDC-134437],–,–,–,–,–,0 (0: NO),1 (1: YES),5.77 µM,450 nM,1370 nM,5.3 µM,6.24 µM
CC(Cc1ccc(CNC(=O)c2ccc(CC(C)NCCc3cccc(Cl)c3)cc2)cc1)NCCc1cccc(Cl)c1 (stereo not drawn) [TCMDC-139659],–,–,–,–,–,0 (0: NO),0 (0: NO),2.71 µM,570 nM,860 nM,3.15 µM,2.26 µM
Cl.Clc1ccc(OCCC2CCN(CCCCCCCN3CCC(CCOc4ccc(Cl)c(Cl)c4)CC3)CC2)cc1Cl [TCMDC-138967],–,–,–,–,–,0 (0: NO),0 (0: NO),2.12 µM,470 nM,520 nM,2.6 µM,1.64 µM
COc1ccc2ccc(OC)c(CNCCCCCCNCc3c(OC)ccc4ccc(OC)cc34)c2c1.CS(=O)(=O)O [TCMDC-137796],–,–,–,–,–,0 (0: NO),1 (1: YES),3.36 µM,290 nM,1210 nM,3.4 µM,3.31 µM
COc1ccc(CNC2Cc3ccccc3C2)cc1-c1ccc(OC)c(S(=O)(=O)NCCN2CCCC2)c1.O=C(O)C(F)(F)F [TCMDC-132251],–,–,–,–,–,0 (0: NO),1 (1: YES),11.89 µM,1140 nM,2700 nM,16.6 µM,7.17 µM
[O-][s+]1c(Cl)c(-c2ccc(Cl)cc2)c2ccc(Cl)cc21 (stereo not drawn) [TCMDC-124011],–,–,–,–,–,1 (1: YES),1 (1: YES),12.08 µM,20 nM,36.6 nM,12.8 µM,11.35 µM
c1ccc2sc(Sc3ncnc4sccc34)nc2c1 [TCMDC-125539],–,–,–,–,–,1 (1: YES),1 (1: YES),100.00 µM,500 nM,140 nM,>25 µM,>100 µM
CC1CCCCN1CCCNc1nc(NCc2ccccc2)c2ccccc2n1 (stereo not drawn) [TCMDC-137771],–,–,–,–,–,0 (0: NO),1 (1: YES),17.35 µM,140 nM,7250 nM,20.07 µM,14.62 µM
Cc1sc2ncnc(Sc3nnc(N)s3)c2c1C [TCMDC-124542],–,–,–,–,–,1 (1: YES),1 (1: YES),36.31 µM,300 nM,770 nM,>25 µM,36.31 µM
CCOc1cc(CNCCCCCCNCc2cc(OCC)c(OCC)c3ccccc23)c2ccccc2c1OCC.CS(=O)(=O)O [TCMDC-137939],2.35 µM,750 nM,1780 nM,2.7 µM,2.00 µM,0 (0: NO),0 (0: NO),–,–,–,–,–
c1cc(C2=N[C@H]3CCCC[C@@H]3N2)ccc1OCCCOc1ccc(C2=N[C@@H]3CCCC[C@H]3N2)cc1 [TCMDC-137803],–,–,–,–,–,0 (0: NO),1 (1: YES),38.02 µM,470 nM,11500 nM,>25 µM,38.02 µM
Cc1cc(OCCN2CCCCC2)ccc1NC(=O)c1cccc2c(=O)n(Cc3ccc(Cl)cc3)cnc12 [TCMDC-136727],–,–,–,–,–,0 (0: NO),0 (0: NO),4.45 µM,950 nM,1400 nM,4.73 µM,4.17 µM
CN(CCCCN)Cc1ccc(-c2ccc(Cl)cc2)cc1 [TCMDC-140123],–,–,–,–,–,0 (0: NO),0 (0: NO),3.77 µM,410 nM,1580 nM,3.99 µM,3.55 µM
CC(CNC(=N)c1cccc(C(=N)NCC(C)Oc2cccc(C3CCCCC3)c2)n1)Oc1cccc(C2CCCCC2)c1.Cl (stereo not drawn) [TCMDC-137455],–,–,–,–,–,0 (0: NO),1 (1: YES),2.85 µM,240 nM,1270 nM,3.53 µM,2.16 µM
C=C[C@H]1CN(CCCCCCC)CC[C@H]1CCNc1ccnc2ccc(OC)cc12 [TCMDC-139204],–,–,–,–,–,0 (0: NO),0 (0: NO),2.82 µM,1080 nM,1800 nM,3.4 µM,2.24 µM
FC(F)(F)c1ccc2[nH]c(-c3ccc(-c4ccc(CNCCN5CCNCC5)cc4)s3)nc2c1.O=C(O)C(F)(F)F [TCMDC-132862],–,–,–,–,–,0 (0: NO),0 (0: NO),9.89 µM,1290 nM,3000 nM,6.9 µM,12.88 µM
N=C(NCC1CC1c1ccccc1)c1cccc(C(=N)NCC2CC2c2ccccc2)n1 (stereo not drawn) [TCMDC-137456],–,–,–,–,–,0 (0: NO),1 (1: YES),6.50 µM,450 nM,1890 nM,6.8 µM,6.21 µM
c1cc(Nc2nc(-c3ccc(-c4csc(Nc5ccncc5)n4)cc3)cs2)ccn1 [TCMDC-139725],–,–,–,–,–,1 (1: YES),1 (1: YES),9.78 µM,260 nM,30 nM,17.3 µM,2.26 µM
